Tests used:
DLD1 cells [1] = assay: In vitro phagocytosis assay, DLD1 cells with THP1 macrophages; format: cell-based; details: CFSE-labeled CRC cells cocultured with PMA-activated THP1 macrophages, vs vehicle
HCT116 cells = assay: Flow cytometry of do not eat-me signals and calreticulin; format: cell-based
DLD1 cells [2] = assay: Cell viability (MTT); format: cell-based
Protocol: Cell viability was measured by MTT (3-(4,5-dimethylthiazol2-yl)-2,5-diphenyltetrazolium bromide, Sigma-Aldrich). Cells (5 × 10^3 cells/well) were seeded in a 96-well plate. […] After treatment, the cells were incubated with 0.5 mg/mL MTT in the media for 2 h and lysed with DMSO. Absorbance was measured at 570 nm using a VersaMax ELISA microplate reader (Molecular Devices).

PLD = PLD activity assay in HCT 116 cells; format: cell-based; details: at 10 μM (Fig. 1c)
Protocol: Cells were labeled with [H^3] myristic acid, and PLD activity was assessed by measuring the formation of [H^3] phosphatidylbutanol, which is the product of PLD-mediated transphosphatidylation, in the presence of 1-butanol, as previously described.

HEK293 cells = assay: TCF transactivation in HEK293 cells; format: cell-based; details: Wnt3a 150 ng/mL
CRC cells [3] = assay: TCF transactivation in CRC cells with an active Wnt pathway; format: cell-based
MC38-GFP-Luc cells = assay: Colon cancer orthotopic model (MC38-GFP-Luc in cecum); format: in vivo, mouse
Protocol: GFP-luciferase expressing MC38 murine CRC (MC38-GFP-Luc) cells were cocultured with bone marrow-derived macrophages (BMDMs). After 48 h, the macrophages were isolated and incubated with naïve T cells from the splenocytes of wild-type mice to generate CD8^+ T cells. The activated CD8^+ T cells were sorted using BD FACSAria III, added to wells containing MC38-GFP-Luc cells and titrated to effector cells (E) and the target cell (T) ratio (E/T ratio). Four hours later, CD8^+ T-cell-mediated killing of MC38-GFP-Luc cancer cells in each well was monitored using a luciferase-based bioluminescence imaging system.
(§1) Supplementary materials and methods […]
A colon cancer orthotropic model was established using 6- weeks-old C57BL/6 male mice.
Mice were administered a single IP injection of 2,2,2-Tribromoethanol (Avertin, Sigma - aldrich), an an esthetic . T he abdomen was shaved and the surgi cal site was draped in a sterile […]
manner. The incision was extended to 2–3 cm, and the cecum was exposed. 2 × 10^5 MC38-GFP-Luciferas e cells were suspended in 50 µL PBS and injected into the cecum. Seven days after cell injection, 10 mg/kg A3373 was orally administered to the mice daily for 4 weeks. […]
All mice wer e housed at 2 5°C under a 12:12 hou rs light/dark cycle. All animal procedu res were performed in accordance with the institutional guidelines for animal research and were approved by the Institutional Animal Care and Use Committee of Yonsei University (IACUC- […]
In a colon cancer orthotropic model, tumor-infiltrating lymphocytes (TILs) were isolated from the tumor tissue 30 days after cell injection. Tumors wer e en zymatically di ssociated in RPMI media containing 10% FBS, 200 mg/mL collagenase IV (Sigma- Aldrich), 20 mg/mL hyaluronidase (Sigma-Al drich), and 20 mg/mL DNase I (Sigma Aldrich) at 37 ℃ with stirring.
After 20 minutes of incubation, 0.1 M EDTA was added to prevent clumping. Cells were filtered through a 40 µm nylon mesh, single-cell suspensions were counted and used for the experiments. Finally, the TILs were resuspended in PBS containing 1% FBS. For the distribution of immune cells, anti- mouse CD45 microbeads were us ed according to the manufacturer’s instructions (Miltenyi Biotech). Isolated tumor cells were cultured for one passage to change the immunocompromised phenotype and assessed using flow cytometry.
Splenocytes were isolat ed from mouse spleens, seeded at 5× 10^6 cells, and stimulated with 10 µg/mL MC38 GFP-Luciferase cell lysates. For intracellular cytokine staining, cells were […]

β-catenin/TCF-4 complex = assay: Immunoprecipitation of β-catenin/TCF-4; format: cell-based; details: 2 μM, 12 h, CRC cells
Protocol: As previously described, lysates from cells or colorectal cancer (CRC) tissues were analyzed by immunoprecipitation, and/or Western blotting was performed as described previously. The antibodies used are listed in Supplementary Table 5. A polyclonal anti-PLD antibody that recognizes both PLD1 and PLD2 was generated, as previously described. The use of human CRC tissue samples was approved by the Institutional Review Board of Pusan National University, Korea (PNU IRB/2011-6).

DLD1 cells [4] = assay: Flow cytometry of CD44 and CD133; format: cell-based; details: dose-dependent, mean fluorescence intensity
[5] = test system: 21 purified protein kinases; assay: Kinase panel assay (KinaseProfiler); format: biochemical; details: 1 µM A3373
Protocol: as §1
In vitro kinase activity assays of A3373 were perfo rmed using the 21 kinase KinaseProfilerTM
(eurofins). Kinase activity was determined aft er in cubation with 1 µM A3373, acco rding to the
KinaseProfilerTM Service standard assay protocol s. […]

DLD1 cells [6] = assay: Cell cycle analysis (BrdU/7-AAD flow cytometry), DLD1; format: cell-based
Protocol: For cell cycle analysis, the cells were treated with Α3373 or 5-FU. The cells were labeled with 10 μΜ bromodeoxyuridine (BrdU) for 2 h. Subsequently, the cells were stained with 7-aminoactinomycin D (7-AAD, Invitrogen) and a fluorescein isothiocyanate (FITC)-conjugated anti-BrdU antibody (Invitrogen). Apoptotic cells were detected using an Annexin V-FITC Apoptosis Detection Kit (BD Biosciences). The cells were analyzed using BD FACSAria III (BD Biosciences), and data analysis was performed using FlowJo v10.0 (BD Biosciences).

CRC cells [7] = assay: Measurement of HMGB1 release (ELISA); format: cell-based
Protocol: For the quantitative determination of extracellular ATP, the cells were treated with Α3373. Extracellular release of ATP was assessed using the ENLITEN ATP Assay kit (Promega) according to the manufacturer’s instructions. For the HMGB1 level measurement, the supernatants of the cells were prepared by removing insoluble materials by centrifugation at 10,000 × g for 3 min at 4 °C. The levels of HMGB1 were measured using an HMGB1 detection kit (Chondrex) according to the manufacturer’s instructions.

[8] = mesenteric lymph nodes, vs vehicle

## O=C(Nc1cc(C(F)(F)F)cc(C(F)(F)F)c1)c1cc2cc(F)ccc2[nH]1 [Compound A3373]
DLD1 cells [1]
  population of CD11b+CFSE+ macrophages, in words: significantly increased the population of CD11b^+CFSE^+ macrophages
HCT116 cells
  cell-surface CRT expression, in words: increased cell-surface CRT expression
HCT116 cells; CRC cells, flow cytometry
  levels of do not eat-me signals, in words: significantly reduced the levels of the “do not eat-me” signals
DLD1 cells [2]; DLD1 cells
  potency in suppressing viability, comparison: higher potency in suppressing viability than that of VU0155069
DLD1 cells [2]; dose- and time-dependent
  viability of DLD1 cells, in words: significantly inhibited the viability
PLD
  PLD activity remained: 20.6%
HEK293 cells
  Wnt3a- and β-catenin-induced TCF transactivation: significantly decreased Wnt3a- and β-catenin-induced TCF transactivation
CRC cells [3]
  TCF transactivation in CRC cells: significantly suppressed TCF transactivation
MC38-GFP-Luc cells; 10 mg/kg every day for 4 weeks
  active caspase-3 and Ki67 in tumor tissues (IHC): increased levels of active caspase-3 and reduced levels of Ki67
MC38-GFP-Luc cells; 10 mg/kg every day for 4 weeks, vs vehicle
  mortality and tumor weight: significant reduction in mortality and tumor weight
MC38-GFP-Luc cells; MC38-GFP-Luc cells derived from treated mice, vs vehicle
  CD8+ T-cell-mediated killing, luciferase activity: significantly lower luciferase activity
MC38-GFP-Luc cells; coculture with MC38-GFP-Luc cells isolated from tumors
  population of GFP+CD11b+ BMDMs, in words: significantly increased the population of GFP^+CD11b^+ BMDMs
MC38-GFP-Luc cells; mesenteric lymph nodes restimulated with MC38-GFP-Luc lysates, vs vehicle
  CD107a+ granzyme B+ and FasL+IFNγ+ CD8+ T cells: increased population of CD107a^+ granzyme B^+ and FasL^+IFNγ^+ CD8^+ T cells
MC38-GFP-Luc cells; [8]
  Foxp3+ cells in the CD4+ TCRβ+ gate: decreased population of Foxp3^+ cells
  IFNγ+ and IL17a+ in CD4+ T cells: significantly increased the population of IFNγ^+ and IL17a^+ in CD4^+ T cells
β-catenin/TCF-4 complex
  endogenous interaction between β-catenin and TCF-4: disrupted the endogenous interaction between β-catenin and TCF-4
DLD1 cells [4]
  expression of CD44 and CD133: significantly decreased the expression of CD44 and CD133
[5]
  effect on activity of 21 purified protein kinases: no effect
DLD1 cells [6]
  cell cycle / proliferation of CRC cells, in words: significantly decreased the proliferation of CRC cells
CRC cells [7]
  release of HMGB1, in words: increased the release of HMGB1 in a dose-dependent manner
